{
  "source": "paper PMC7762828",
  "about": "(Journal of medicinal chemistry, 2020)",
  "key": {"Human recombinant HDAC4": {"target": "Human recombinant HDAC4 (Homo sapiens, UniProt P56524)", "sequence (P56524 whole entry)": "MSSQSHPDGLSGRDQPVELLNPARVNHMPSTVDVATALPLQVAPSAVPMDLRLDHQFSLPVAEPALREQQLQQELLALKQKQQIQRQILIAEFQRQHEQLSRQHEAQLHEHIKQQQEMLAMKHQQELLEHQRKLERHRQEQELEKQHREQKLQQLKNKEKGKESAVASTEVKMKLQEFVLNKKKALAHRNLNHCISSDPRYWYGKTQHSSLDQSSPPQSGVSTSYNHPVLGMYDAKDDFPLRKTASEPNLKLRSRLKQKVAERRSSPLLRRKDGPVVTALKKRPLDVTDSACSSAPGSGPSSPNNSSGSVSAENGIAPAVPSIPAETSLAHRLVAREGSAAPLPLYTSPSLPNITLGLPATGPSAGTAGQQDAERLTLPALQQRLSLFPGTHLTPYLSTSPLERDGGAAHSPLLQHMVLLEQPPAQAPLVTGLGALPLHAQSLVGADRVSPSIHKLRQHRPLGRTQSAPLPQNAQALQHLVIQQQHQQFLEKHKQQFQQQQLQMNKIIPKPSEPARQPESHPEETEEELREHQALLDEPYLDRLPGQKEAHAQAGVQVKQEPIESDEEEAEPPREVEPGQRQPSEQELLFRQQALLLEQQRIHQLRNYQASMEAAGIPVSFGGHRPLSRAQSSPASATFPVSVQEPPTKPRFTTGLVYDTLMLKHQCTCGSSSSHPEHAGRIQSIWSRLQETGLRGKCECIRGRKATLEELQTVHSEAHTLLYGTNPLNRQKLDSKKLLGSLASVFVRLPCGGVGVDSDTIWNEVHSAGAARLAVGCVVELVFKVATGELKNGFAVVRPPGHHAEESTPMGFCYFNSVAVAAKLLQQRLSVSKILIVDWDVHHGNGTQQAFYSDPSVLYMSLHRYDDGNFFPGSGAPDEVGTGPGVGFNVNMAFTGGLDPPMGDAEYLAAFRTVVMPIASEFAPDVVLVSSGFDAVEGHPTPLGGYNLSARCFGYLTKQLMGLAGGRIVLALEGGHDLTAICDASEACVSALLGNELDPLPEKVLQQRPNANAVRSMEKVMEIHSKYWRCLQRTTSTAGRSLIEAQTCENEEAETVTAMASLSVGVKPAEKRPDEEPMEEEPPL", "experiment": "HDAC4 inhibition assay", "assay_type": "biochemical", "settings": "selectivity for HDAC6 over HDAC4"}, "HL60 cells [1]": {"tested_on": "HL60 cells", "experiment": "Western blot of protein acetylation in HL60 cells", "assay_type": "cell-based", "settings": "HL60, 24 h, two concentrations, immunoblot"}, "leukemia cell lines": {"tested_on": "leukemia cell lines", "experiment": "CellTiter-Glo cell viability assay, panel of seven leukemia cell lines", "assay_type": "cell-based", "settings": "72 h, read-out: cell viability IC50"}, "HL60 cells [2]": {"tested_on": "HL60 cells", "experiment": "Annexin V-propidium iodide apoptosis assay", "assay_type": "cell-based", "settings": "HL60, 24 h"}, "T-ALL cell line (HSB-2)": {"tested_on": "T-ALL cell line (HSB-2)", "experiment": "Combinatorial high throughput drug screen", "assay_type": "cell-based"}},
  "note": "pIC50: −log10 of the molar value.",
  "data": [
    {"smiles": "O=C(NO)c1ccc(CN(Cc2nnnn2Cc2ccccc2)C(=O)c2ccccc2C(F)(F)F)cc1", "note": "[6l]", "values": [
      {"measurement": "SI (HDAC4 vs HDAC6)", "setting": "Human recombinant HDAC4", "result": 1857},
      {"measurement": "acetylation status of histone H3 (ac-H3), marker for class I HDAC inhibition", "setting": "HL60 cells [1]", "result": "unaffected"},
      {"measurement": "α-tubulin acetylation (ac-α-tubulin), marker for HDAC6 inhibition", "setting": "HL60 cells [1]", "result": "induced α-tubulin acetylation"},
      {"measurement": "pIC50", "setting": "leukemia cell lines", "result": "< 4.70"},
      {"measurement": "cytotoxic effect as single agent (number of viable cells)", "setting": "HL60 cells [2]; 6l alone at 2.5 or 5 μM", "result": "no cytotoxic effect"},
      {"measurement": "apoptosis induction in combination with BTZ (late apoptotic/dead cells)", "setting": "HL60 cells [2]; combination with bortezomib (BTZ) versus BTZ alone", "result": "augmented the apoptosis induction of BTZ"},
      {"measurement": "cytotoxic activity in combination with anthracyclines", "setting": "T-ALL cell line (HSB-2); HSB-2, 6l […] and 5 μM with epirubicin (Epi) and daunorubicin (Dauno)", "result": "significant enhancement of cytotoxic activity"},
      {"measurement": "cytotoxicity as single agent", "setting": "T-ALL cell line (HSB-2); HSB-2, 6l alone", "result": "unable to affect the cytotoxicity"}
    ]}
  ]
}
